Counter-ions that a name gives are not always drawn.
Legend:
guinea-pig eosinophils = assay: Chemotaxis inhibition assay: LTB4-induced chemotaxis in guinea-pig eosinophils; assay type: cell-based; conditions: test substance 1×10^−5 M, LTB4 10^−8 M, 2 hours; for inhibition at 10 µM: Cavia porcellus, Eosinophil
Method: 1) Guinea-pig Eosinophil Preparation
Male Hartley guinea-pigs received 2 ml of equine serum (Bio-Whittaker, Inc) intraperitoneally once a week for successive 8 weeks. 48 hours after the last administration, 75 ml of physiological saline was injected into the peritoneal cavity, and the fluid was recovered and centrifuged at 400 G for 5 minutes. […] Erythrocytes in the isolated cell pellet, if any, were removed by hypotonic treatment (suspended in water for 30 seconds).
2) Chemotaxis Inhibition Assay
600 μl of LTB4 suspended in Hanks-Hepes-HSA (final concentration of 10^−8 M, Cascade Biochemical Ltd.) was placed in the lower compartment of a 24-well plate and kept at 37° C. for 30 minutes in a CO2 gas incubator. After mounting a Chemotaxicell (polycarbonate membrane, pore size 3 μm, thickness 10 μm), which served as an upper compartment, on the 24-well plate described above, 200 μl of eosinophil suspension (5×10^6 cells/ml), which had been incubated at 37° C. for 15 minutes in a thermostat chamber, was added to the upper compartment. After allowing to react for 2 hours in the CO2 gas incubator, the Chemotaxicell was removed, and 60 μl of 2% (w/v) EDTA solution in physiological saline was added to the lower compartment. After cooling on ice, the cells which underwent the chemotaxis into the lower compartment were counted using a blood cell counter (Coulter Counter (trade name)). In the procedure described above, the test substance was dissolved in N,N-dimethylformamide (DMF) and added to the upper and lower compartments at the final concentration of 10^−5 M.
% Chemotaxis inhibition=[…] [Equation 2]
The results are shown in [Table 2].

[1] = test system: histamine-induced dermal vascular hyperpermeability; assay: Effect on histamine-induced dermal vascular hyperpermeability in guinea pigs; assay type: in vivo, guinea pig; conditions: 3 mg/kg oral administration, 1 hour before intradermal histamine; male Hartley guinea pigs
Method: Effect on Histamine-induced Dermal Vascular Hyperpermeability in Guinea Pigs
Male Hartley guinea pigs (weighing about 500 g) were used. […] After 30 minutes, the animal was hit on its head to make it unconscious, and cut at its neck to sacrifice by exsanguination. The dorsal skin was peeled and examined for the long and short diameters (mm) of each blue spot which were then multiplied to give a product, which was averaged to give a vascular permeability index. Each substance was suspended in 5% gum arabic solution, and given orally in the volume of 0.2 ml/100 g body weight 1 hour before histamine administration. Control animals received the same volume of 5% gum arabic solution. A % inhibition of this reaction was calculated according to [Equation 1].
% Inhibition of histamine-induced dermal vascular hyperpermeability=100×(1-vascular permeability index in treatment group/vascular permeability index in control group) [Equation 1]

Row | melting point [°C] | Compound | inhibition at 10 µM (guinea-pig eosinophils) [%] | other results
1 | 131 to 133 | Cl.O=c1[nH]c(=O)n(CCCN2CCC(OC(c3ccccc3)c3ccccc3)CC2)c2ncccc12 [Example 6, 2,4-Dioxo-1-[3-(4-diphenylmethoxypiperidino)propyl]-1,2,3,4-tetrahydropyrido[2,3-d]pyrimidine hydrochloride] | 67 | 
2 |  | O=c1nc2n(CCCCN3CCC(OC(c4ccccc4)c4ccccc4)CC3)ccnc-2c(=O)[nH]1 [Example 8, 2,4-Dioxo-8-[4-(4-diphenylmethoxypiperidino)butyl]-1,2,3,4-tetrahydropteridine] |  | Inhibition of histamine-induced dermal vascular hyperpermeability (%) [1]: 92%
3 | 209 to 210 | O=c1[nH]c(=O)n(CCCCN2CCC(OC(c3ccccc3)c3ccccc3)CC2)c2ccc(Cl)cc12 [Example 10, 6-Chloro-2,4-dioxo-1-[4-(4-diphenylmethoxypiperidino)butyl]-1,2,3,4-tetrahydroquinazoline] | 50 | 
4 | 180 to 182 | Cc1ccc2c(c1)c(=O)[nH]c(=O)n2CCCCN1CCC(OC(c2ccccc2)c2ccccc2)CC1 [Example 13, 2,4-Dioxo-1-[4-(4-diphenylmethoxypiperidino)butyl]-6-methyl-1,2,3,4-tetrahydroquinazoline] | 66 | 
5 | 229 to 231 | CC(C)(C)n1c(=O)c2ccccc2n(CCCCN2CCC(OC(c3ccccc3)c3ccccc3)CC2)c1=O.Cl [Example 22, 3-(1,1-Dimethylethyl)-2,4-dioxo-1-[4-(4-diphenylmethoxypiperidino)butyl]-1,2,3,4-tetrahydroquinazoline hydrochloride] | 72 | 
6 | 99 to 100 | COc1ccc(Cn2c(=O)c3ccccc3n(CCCCN3CCC(OC(c4ccccc4)c4ccccc4)CC3)c2=O)cc1 [Example 26, 2,4-Dioxo-1-[4-(4-diphenylmethoxypiperidino)butyl]-3-(4-methoxybenzyl)-1,2,3,4-tetrahydroquinazoline] | 50 | 
7 |  | CC(=O)OCC(=O)Nc1ccc2c(c1)c(=O)[nH]c(=O)n2CCCCN1CCC(OC(c2ccccc2)c2ccccc2)CC1 [Example 46, 6-Acetoxyacetamide-2,4-dioxo-1-[4-(4-diphenylmethoxypiperidino)butyl]-1,2,3,4-tetrahydroquinazoline] |  | Inhibition (%) of LTB4-induced chemotaxis (guinea-pig eosinophils): 52%
8 | 145 to 150 | O=c1c2ccccc2n(CCCCN2CCC(OC(c3ccccc3)c3ccccc3)CC2)c(=O)n1CCO [Example 55, 2,4-Dioxo-1-[4-(4-diphenylmethoxypiperidino)butyl]-3-(2-hydroxyethyl)-1,2,3,4-tetrahydroquinazoline] | 64 | 
9 |  | CN(CCc1ccccc1)C(=O)Cn1c(=O)c2ccccc2n(CCCCN2CCC(OC(c3ccccc3)c3ccccc3)CC2)c1=O.Cl [Example 56, 2,4-Dioxo-1-[4-(4-diphenylmethoxypiperidino)butyl]-N-methyl-N-(2-phenethyl)-1,2,3,4-tetrahydroquinazoline-3-acetamide hydrochloride] |  | Inhibition (%) of LTB4-induced chemotaxis (guinea-pig eosinophils): 73%
10 |  | O=c1c2ccccc2n(CCCCN2CCC(OC(c3ccccc3)c3ccccc3)CC2)c(=O)n1CCCc1ccccc1 [Example 58, 2,4-Dioxo-1-[4-(4-diphenylmethoxypiperidino)butyl]-3-(3-phenylpropyl)-1,2,3,4-tetrahydroquinazoline hydrochloride] | 84 | 
11 |  | COC(=O)COC(=O)Cn1c(=O)c2ccccc2n(CCCCN2CCC(OC(c3ccccc3)c3ccccc3)CC2)c1=O [Example 69, Methoxycarbonylmethyl 2,4-dioxo-1-[4-(4-diphenylmethoxypiperidino)butyl]-1,2,3,4-tetrahydroquinazoline-3-acetate hydrochloride] | 96 | 
12 |  | COC(=O)Cc1ccc2c(c1)c(=O)[nH]c(=O)n2CCCCN1CCC(OC(c2ccccc2)c2ccccc2)CC1 [Example 86, Methyl 2,4-dioxo-1-[4-(4-diphenylmethoxypiperidino)butyl]-1,2,3,4-tetrahydroquinazoline-6-acetate] | 55 | 
13 | 177 to 179 | O=C(O)c1ccc2c(=O)[nH]c(=O)n(CCCCN3CCC(OC(c4ccccc4)c4ccccc4)CC3)c2c1 [Example 90, 2,4-Dioxo-1-[4-(4-diphenylmethoxypiperidino)butyl]-1,2,3,4-tetrahydroquinazoline-7-carboxylic acid] |  | 
14 | 106 to 107 | N#Cn1c(=O)c2ccccc2n(CCCCN2CCC(OC(c3ccccc3)c3ccccc3)CC2)c1=O [Example 92, 2,4-Dioxo-1-[4-(4-diphenylmethoxypiperidino)butyl]-1,2,3,4-tetrahydroquinazoline-3-carbonitrile] |  | 
15 |  | COC(=O)C1(n2c(=O)c3ccccc3n(CCCCN3CCC(OC(c4ccccc4)c4ccccc4)CC3)c2=O)CCCCC1 [Example 97, Methyl 1-[2,4-dioxo-1-[4-(4-diphenylmethoxypiperidino)butyl]-1,2,3,4-tetrahydroquinazolin-3-yl]-1-cyclohexylcarboxylate hydrochloride] | 62 | 
16 | 155 to 157 | O=C(O)CCCCCn1c(=O)c2ccccc2n(CCCCN2CCC(OC(c3ccccc3)c3ccccc3)CC2)c1=O [Example 98, 2,4-Dioxo-1-[4-(4-diphenylmethoxypiperidino)butyl]-1,2,3,4-tetrahydroquinazoline-3-hexanoic acid] | 50 | 
17 |  | O=C(O)CCCCn1c(=O)c2cc(F)ccc2n(CCCCN2CCC(OC(c3ccccc3)c3ccccc3)CC2)c1=O [Example 101, 2,4-Dioxo-1-[4-(4-diphenylmethoxypiperidino)butyl]-6-fluoro-1,2,3,4-tetrahydroquinazoline-3-valeric acid] | 50 | 
18 | 234 to 236 | O=C(O)CCCCn1c(=O)c2cc(O)ccc2n(CCCCN2CCC(OC(c3ccccc3)c3ccccc3)CC2)c1=O [Example 105, 2,4-Dioxo-1-[4-(4-diphenylmethoxypiperidino)butyl]-6-hydroxy-1,2,3,4-tetrahydroquinazoline-3-valeric acid] |  | 
19 |  | COC(=O)CNC(=O)Cn1c(=O)c2ccccc2n(CCCCN2CCC(OC(c3ccccc3)c3ccccc3)CC2)c1=O [Example 109, 2,4-Dioxo-1-[4-(4-diphenylmethoxypiperidino)butyl]-N-methoxycarbonylmethyl-1,2,3,4-tetrahydroquinazoline-3-acetamide hydrochloride] | 55 | 
20 | 170 to 172 | CCOC(=O)CN(C)C(=O)Cn1c(=O)c2ccccc2n(CCCCN2CCC(OC(c3ccccc3)c3ccccc3)CC2)c1=O.Cl [Example 110, 2,4-Dioxo-1-[4-(4-diphenylmethoxypiperidino)butyl]-N-ethoxycarbonylmethyl-N-methyl-1,2,3,4-tetrahydroquinazoline-3-acetamide hydrochloride] | 122 | 
21 | 123 to 124 | CCOC(=O)CCNC(=O)Cn1c(=O)c2ccccc2n(CCCCN2CCC(OC(c3ccccc3)c3ccccc3)CC2)c1=O.Cl [Example 111, 2,4-Dioxo-1-[4-(4-diphenylmethoxypiperidino)butyl]-N-(2-ethoxycarbonylethyl)-1,2,3,4-tetrahydroquinazoline-3-acetamide hydrochloride] | 80 | 
22 |  | CN(CC(=O)O)C(=O)Cn1c(=O)c2ccccc2n(CCCCN2CCC(OC(c3ccccc3)c3ccccc3)CC2)c1=O [Example 114, N-Carboxylmethyl-2,4-dioxo-1-[4-(4-diphenylmethoxypiperidino)butyl]-N-methyl-1,2,3,4-tetrahydroquinazoline-3-acetamide] | 54 | 
23 |  | O=C(O)CNC(=O)CCn1c(=O)c2ccccc2n(CCCCN2CCC(OC(c3ccccc3)c3ccccc3)CC2)c1=O [Example 116, N-Carboxylmethyl-2,4-dioxo-1-[4-(4-diphenylmethoxypiperidino)butyl]-1,2,3,4-tetrahydroquinazoline-3-propionamide hydrochloride] | 52 | 
24 |  | N-(2-Carboxylethyl)-carboxylmethyl-2,4-dioxo-1-[4-(4-diphenylmethoxypiperidino)butyl]-N-methyl-1,2,3,4-tetrahydroquinazoline-3-acetamide [Example 115] |  | Inhibition (%) of LTB4-induced chemotaxis (guinea-pig eosinophils): 56%
